According to US10709712B2, “Biaryl amide compounds as kinase inhibitors” (NOVARTIS AG, priority 2013, dated 2020):

Tests used:
[1] = target: b-Raf(V600E) (Homo sapiens (Human), UniProt P15056, V600E); settings: read-out: b-Raf IC-50; Table 2; Alpha Screen phospho-MEK, reaction 3 hours
Experimental: In Vitro Raf Activity Determination
Full length MEK1 with an inactivating K97R ATP binding site mutation is utilized as a RAF substrate.
Assay buffer: 50 mM Tris, pH 7.5, 15 mM MgCl2, 0.01% Bovine Serum Albumin (BSA), 1 mM dithiothreitol (DTT) Stop buffer: 60 mM ethylenediaminetetraacetic acid (EDTA), 0.01% Tween® 20
biotinylated Mek, kinase dead
(§1) biotinylated Mek, Kinase dead approximately 10 nM
(§2) Pre-incubation time with compounds 60 minutes at room temperature
Reaction time 1 or 3 hours at room temperature
The plate was incubated for 60 minutes at room temperature.
(§3) The additions were carried out under dark conditions to protect the detection beads from light. A lid was placed on top of the plate and incubated for 1 hour at room temperature, then the luminescence was read on a PerkinElmer Envision instrument.

[2] = target: C-Raf FL (full-length C-Raf protein) (Homo sapiens (Human), UniProt P04049, Y340E/Y341E); format: biochemical; settings: Table 2, Alpha Screen phospho-MEK, reaction 1 hour, read-out: c-Raf FL IC-50
Text: Sf9 cells co-expressing both proteins were lysed and subjected to immobilized nickel chromatography and eluted with Imidazole. A second column (StrepII binding column) was used and eluted with desthiobiotin. Protein Tags were removed using Prescission enzyme and the protein was further purified using a flowthrough step to remove tags.
C-Raf FL refers to the full-length C-Raf protein.
Full length MEK1 with an inactivating K97R ATP binding site mutation is utilized as a RAF substrate. The MEK1 cDNA was subcloned with an N-terminal (his)6 tag into a vector for E. Coli expression. The MEK1 substrate was purified from E. Coli lysate by nickel affinity chromatography followed by anion exchange. The final MEK1 preparation was biotinylated (Pierce EZ-Link Sulfo-NHS-LC-Biotin) and concentrated.
Assay buffer: 50 mM Tris, pH 7.5, 15 mM MgCl2, 0.01% Bovine Serum Albumin (BSA), 1 mM dithiothreitol (DTT)
Stop buffer: 60 mM ethylenediaminetetraacetic acid (EDTA), 0.01% Tween® 20
as §1, §2
Reaction time 1 or 3 hours at room temperature […]
as §3

Sequence of b-Raf(V600E) (P15056 whole entry V600E): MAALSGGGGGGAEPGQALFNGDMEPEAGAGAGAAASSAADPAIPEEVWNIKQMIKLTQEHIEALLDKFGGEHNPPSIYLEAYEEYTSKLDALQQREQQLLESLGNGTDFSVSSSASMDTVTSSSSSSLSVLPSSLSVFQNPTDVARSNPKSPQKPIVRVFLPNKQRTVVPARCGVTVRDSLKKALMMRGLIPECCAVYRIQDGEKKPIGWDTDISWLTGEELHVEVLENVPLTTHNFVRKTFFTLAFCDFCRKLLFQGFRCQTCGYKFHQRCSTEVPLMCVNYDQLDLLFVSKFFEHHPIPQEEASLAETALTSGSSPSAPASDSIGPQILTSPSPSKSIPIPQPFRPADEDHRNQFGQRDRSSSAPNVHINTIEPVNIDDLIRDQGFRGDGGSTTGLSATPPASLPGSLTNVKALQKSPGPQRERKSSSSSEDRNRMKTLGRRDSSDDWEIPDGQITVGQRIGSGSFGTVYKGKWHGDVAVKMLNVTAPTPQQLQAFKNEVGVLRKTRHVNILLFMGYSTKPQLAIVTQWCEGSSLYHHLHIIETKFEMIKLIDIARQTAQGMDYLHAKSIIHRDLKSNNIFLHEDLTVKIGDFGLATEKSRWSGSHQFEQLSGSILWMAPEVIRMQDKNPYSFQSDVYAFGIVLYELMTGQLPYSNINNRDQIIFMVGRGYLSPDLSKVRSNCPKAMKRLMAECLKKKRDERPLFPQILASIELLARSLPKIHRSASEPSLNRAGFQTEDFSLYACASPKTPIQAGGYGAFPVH

“N-(4-methyl-3-(5-morpholino-6-((tetrahydro-2H-pyran-4-yl)oxy)pyridazin-3-yl) phenyl)-6-(trifluoromethyl) pyridazine-4-carboxamide [Example 577]” gave an IC50 [1] of 0.6 nM.

With “N-(4-methyl-3-(7-morpholino-2-oxo-2,3-dihydrobenzo[d]oxazol-5-yl) phenyl)-3-(trifluoromethyl) benzamide [Example 827]” the IC50 [2] was 0.2 nM.

Compound `Cc1ncc(NC(=O)c2cccc(C(F)(F)F)c2)cc1-c1cc(N2CCOCC2)nc(NC[C@@H](C)O)n1` [Example 743, (R)—N-(5-(2-((2-hydroxypropyl)amino)-6-morpholinopyrimidin-4-yl)-6-methylpyridin-3-yl)-3-(trifluoromethyl) benzamide] has an IC50 [1] of 3.7 nM.
